Test results published in patent US20130053387A1, “DESAZADESFERROTHIOCIN AND DESAZADESFERROTHIOCIN POLYETHER ANALOGUES AS METAL CHELATION AGENTS” (FerroKin BioScience, Inc., priority 2010, published 2013).
Values after ≈ are worked out from the molar mass of the structure shown. Like-named read-outs stand apart in the source and are kept apart here.

Experiments:
physchem [1] = test: physchem
Protocol: Measurements were taken via LC/MS.
Stir bars were removed and samples centrifuged at 15,000 g for 15 minutes to separate the phases, and pipette and syringe were used to remove the upper (octanol) and lower (buffer) phases to empty tubes, respectively. Aliquots of 5 ni, were taken from upper phases and diluted with 495 ni, of methanol. Aliquots of 50 ni, were taken from lower phases and diluted with 450 ni, of methanol. Reference solutions of progesterone or metopolol were also prepared and tested as standards.

[2] = Solubility determination in PBS by LC/MS/MS; details: for solubility at 2 h: kinetic from dmso stock
[3] = design: concentration or dose not given beside the values; details: cited from earlier work
[4] = design: concentration or dose not given beside the values; details: cited from earlier work; remark: listed apart in the source
physchem [5] = details: 25 °C, kinetic from dmso stock
[6] = rats, 300 μmol/kg intraperitoneally immediately after uranyl acetate; cited from earlier work
[7] = PBS pH 4.0, 25 °C, pH 4, aqueous buffer
[8] = PBS pH 7.4, 25 °C, pH 7.4, aqueous buffer

Row | SMILES | logD at 1 h (physchem [1]; pH 7.4) | solubility at 2 h [2, 7] | solubility at 2 h [2, 8] | Rodent ICE [3] | other results
1 | COCCOCCOc1ccc(C2=NC(C)(C(=O)O)CO2)c(O)c1 (centres unmarked) [Example 1, 2-(2-hydroxy-4-(2-(2-methoxyethoxy)ethoxy)phenyl)-4-methyl-4,5-dihydrooxazole-4-carboxylic acid] | -1.39 | 309 µM (≈ 105 µg/mL) | 312 µM (≈ 106 µg/mL) | – | –
2 | COCCOCCOCCOc1ccc(C2=NC(C)(C(=O)O)CO2)c(O)c1 (centres unmarked) [Example 2, 2-(2-hydroxy-4-(2-(2-(2-methoxyethoxy)ethoxy)ethoxy)phenyl)-4-methyl-4,5-dihydrooxazole-4-carboxylic acid] | -1.77 | 297 µM (≈ 114 µg/mL) | 291 µM (≈ 112 µg/mL) | – | –
3 | COCCOCCOc1ccc(C2=NC(C)(C(=O)O)CN2)c(O)c1 (centres unmarked) [Example 3, 2-(2-hydroxy-4-(2-(2-methoxyethoxy)ethoxy)phenyl)-4-methyl-4,5-dihydro-1H-imidazole-4-carboxylic acid] | -1.87 | 302 µM (≈ 102 µg/mL) | 299 µM (≈ 101 µg/mL) | – | –
4 | COCCOCCOCCOc1ccc(C2=NC(C)(C(=O)O)CN2)c(O)c1 (centres unmarked) [Example 4, 2-(2-hydroxy-4-(2-(2-(2-methoxyethoxy)ethoxy)ethoxy)phenyl)-4-methyl-4,5-dihydro-1H-imidazole-4-carboxylic acid] | -2.13 | 313 µM (≈ 120 µg/mL) | 316 µM (≈ 121 µg/mL) | – | –
5 | COCCOCCOc1cccc(C2=NC(C)(C(=O)O)CN2)c1O (centres unmarked) [Example 5, 2-(2-hydroxy-3-(2-(2-methoxyethoxy)ethoxy)phenyl)-4-methyl-4,5-dihydro-1H-imidazole-4-carboxylic acid] | -2.09 | 306 µM (≈ 104 µg/mL) | 311 µM (≈ 105 µg/mL) | – | –
6 | COCCOCCOCCOc1cccc(C2=NC(C)(C(=O)O)CN2)c1O (centres unmarked) [Example 6, 2-(2-hydroxy-3-(2-(2-(2-methoxyethoxy)ethoxy)ethoxy)phenyl)-4-methyl-4,5-dihydro-1H-imidazole-4-carboxylic acid] | -1.98 | 311 µM (≈ 119 µg/mL) | 311 µM (≈ 119 µg/mL) | – | –
7 | COCCOCCOc1ccc(-n2ccc(C(=O)O)n2)c(O)c1 [Example 7, 1-(2-hydroxy-4-(2-(2-methoxyethoxy)ethoxy)phenyl)-1H-pyrazole-3-carboxylic acid] | -2.24 | 294 µM (≈ 94.7 µg/mL) | 297 µM (≈ 95.7 µg/mL) | – | –
8 | COCCOCCOCCOc1ccc(-n2ccc(C(=O)O)n2)c(O)c1 [Example 8, 1-(2-hydroxy-4-(2-(2-(2-methoxyethoxy)ethoxy)ethoxy)phenyl)-1H-pyrazole-3-carboxylic acid] | -2.14 | 300 µM (≈ 110 µg/mL) | 298 µM (≈ 109 µg/mL) | – | –
9 | COCCOCCOc1ccc(C2=N[C@@](C)(C(=O)O)CS2)c(O)c1 [Example A, (S)-2-(2-hydroxy-4-(2-(2-methoxyethoxy)ethoxy)phenyl)-4-methyl-4,5-dihydrothiazole-4-carboxylic acid] | -1.14 | – | – | 26.7 ± 4.7% | Primate ICE ([4]; capsule): 26.3 ± 9.9%; Primate ICE ([4]; sodium salt): 28.7 ± 12.4%; solubility at 2 h (physchem [5]; pH 4, aqueous buffer): 309 µM (≈ 110 µg/mL); solubility at 2 h (physchem [5]; pH 7.4, aqueous buffer): 305 µM (≈ 108 µg/mL)
10 | COCCOCCOCCOc1ccc(C2=N[C@@](C)(C(=O)O)CS2)c(O)c1 [Example B, (S)-2-(2-hydroxy-4-(2-(2-(2-methoxyethoxy)ethoxy)ethoxy)phenyl)-4-methyl-4,5-dihydrothiazole-4-carboxylic acid] | -1.45 | 307 µM (≈ 123 µg/mL) | 313 µM (≈ 125 µg/mL) | 5.5 ± 1.9% | Primate ICE [4]: 25.4 ± 7.4%; % Dose Cleared [6]: 22%; Uranium Excretion [6]: 626 ± 123 µg/kg; Uranium Excretion vs. Control [6]: 2.2
11 | COCCOCCOCCOCCOc1ccc(C2=N[C@@](C)(C(=O)O)CS2)c(O)c1 [Example C, (S)-2-(4-(2,5,8,11-tetraoxamidecan-13-yloxy)-2-hydroxyphenyl)-4-methyl-4,5-dihydrothiazole-4-carboxylic acid] | – | – | – | 12.0 ± 1.5% | Primate ICE [4]: 9.8 ± 1.9%
12 | COCCOCCOc1cccc(C2=N[C@@](C)(C(=O)O)CS2)c1O [Example D, (S)-2-(2-hydroxy-3-(2-(2-methoxyethoxy)ethoxy)phenyl)-4-methyl-4,5-dihydrothiazole-4-carboxylic acid] | – | – | – | 15.1 ± 2.0% | Primate ICE [4]: 22.5 ± 6.4%
13 | COCCOCCOCCOc1cccc(C2=N[C@@](C)(C(=O)O)CS2)c1O [Example E, (S)-2-(2-hydroxy-3-(2-(2-(2-methoxyethoxy)ethoxy)ethoxy)phenyl)-4-methyl-4,5-dihydrothiazole-4-carboxylic acid] | – | – | – | 10.6 ± 4.4%b | Primate ICE [4]: 23.0 ± 4.1%
14 | COCCOCCOCCOCCOc1cccc(C2=N[C@@](C)(C(=O)O)CS2)c1O [Example F, (S)-2-(3-(2,5,8,11-tetraoxamidecan-13-yloxy)-2-hydroxyphenyl)-4-methyl-4,5-dihydrothiazole-4-carboxylic acid] | – | – | – | 12.4 ± 1.7% | Primate ICE [4]: 9.6 ± 4.9%
15 | O=C(O)Cc1ccccc1Nc1c(Cl)cccc1Cl [diclofenac] | – | 7.47 µM (≈ 2.21 µg/mL) | – | – | Solubility at pH 7.4 ([2]; PBS pH 7.4, 25° C., 2 hours, assay upper limit 300 μM): 273.38 μM
16 | COCCc1ccc(OCC(O)CNC(C)C)cc1 (centres unmarked) [metopolol] | – | – | – | – | LogD (physchem [1]; pH 7.4): −0.27
17 | CC(=O)[C@H]1CC[C@H]2[C@@H]3CCC4=CC(=O)CC[C@]4(C)[C@H]3CC[C@]12C [progesterone] | – | – | – | – | logD at 1 h (physchem [1]): 3.71
